Experimental data published in ChEMBL document CHEMBL2434921, “New synthetic aliphatic sulfonamido-quaternary ammonium salts as anticancer chemotherapeutic agents” (2013).
Active and inactive are the calls of the source. No cut-off for these calls is given here.

Columns and labels:
NCI-H23 [1] = assay: Growth of human NCI-H23 cells at 0.3 uM after 48 hrs by SRB assay; settings: NCI-H23, 48 h
NCI-H23 [2] = assay: Growth inhibition of human NCI-H23 cells at 1 uM after 48 hrs by SRB assay; values are per cent of control; settings: NCI-H23, 48 h
ACHN [3] = assay: Growth of human ACHN cells at 10 uM after 48 hrs by SRB assay
NUGC-3 [4] = assay: Growth of human NUGC3 cells at 0.3 uM after 48 hrs by SRB assay; settings: NUGC-3, 48 h
HCT-15 [5] = assay: Growth inhibition of human HCT15 cells after 48 hrs by SRB assay; type: functional; settings: HCT-15, 48 h
MDA-MB-231 [6] = assay: Growth of human MDA-MB-231 cells at 0.1 uM after 48 hrs by SRB assay; settings: MDA-MB-231, 48 h
MDA-MB-231 [7] = assay: Growth inhibition of human MDA-MB-231 cells after 48 hrs by SRB assay; type: functional; settings: MDA-MB-231, 48 h
NCI-H23 [8] = assay: Growth inhibition of human NCI-H23 cells at 3 uM after 48 hrs by SRB assay; values are per cent of control; settings: NCI-H23, 48 h
PC-3 [9] = assay: Growth inhibition of human PC3 cells after 48 hrs by SRB assay; type: functional; settings: PC-3, 48 h
ACHN [10] = assay: Growth of human ACHN cells at 0.3 uM after 48 hrs by SRB assay
NCI-H23 [11] = assay: Growth of human NCI-H23 cells at 10 uM after 48 hrs by SRB assay; settings: NCI-H23, 48 h
NCI-H23 [12] = assay: Growth inhibition of human NCI-H23 cells after 48 hrs by SRB assay; type: functional; settings: NCI-H23, 48 h
NUGC-3 [13] = assay: Growth inhibition of human NUGC3 cells at 3 uM after 48 hrs by SRB assay; values are per cent of control; settings: NUGC-3, 48 h
[14] = target: Rho-related GTP-binding protein RhoB (Homo sapiens) (UniProt P62745); assay: Transactivation of RhoB (unknown origin) transfected in human HeLa cells at 5 uM measured over 10 secs by dual luciferase reporter gene assay; type: cell-based
ACHN [15] = assay: Growth inhibition of human ACHN cells after 48 hrs by SRB assay; type: functional
MDA-MB-231 [16] = assay: Growth of human MDA-MB-231 cells at 3 uM after 48 hrs by SRB assay; values are per cent of control; settings: MDA-MB-231, 48 h
NCI-H23 [17] = assay: Growth inhibition of human NCI-H23 cells at 0.1 uM after 48 hrs by SRB assay; values are per cent of control; settings: NCI-H23, 48 h
NUGC-3 [18] = assay: Growth inhibition of human NUGC3 cells after 48 hrs by SRB assay; type: functional; settings: NUGC-3, 48 h
HCT-15 [19] = assay: Growth inhibition of human HCT15 cells at 0.1 uM after 48 hrs by SRB assay; values are per cent of control; settings: HCT-15, 48 h
ACHN [20] = assay: Growth inhibition of human ACHN cells at 1 uM after 48 hrs by SRB assay; values are per cent of control
HCT-15 [21] = assay: Growth inhibition of human HCT15 cells at 1 uM after 48 hrs by SRB assay; values are per cent of control; settings: HCT-15, 48 h
HCT-15 [22] = assay: Growth of human HCT15 cells at 0.3 uM after 48 hrs by SRB assay; settings: HCT-15, 48 h
PC-3 [23] = assay: Growth inhibition of human PC3 cells at 0.1 uM after 48 hrs by SRB assay; values are per cent of control; settings: PC-3, 48 h
HCT-15 [24] = assay: Growth inhibition of human HCT15 cells at 10 uM after 48 hrs by SRB assay; values are per cent of control; settings: HCT-15, 48 h
PC-3 [25] = assay: Growth inhibition of human PC3 cells at 1 uM after 48 hrs by SRB assay; values are per cent of control; settings: PC-3, 48 h
PC-3 [26] = assay: Growth inhibition of human PC3 cells at 0.3 uM after 48 hrs by SRB assay; values are per cent of control; settings: PC-3, 48 h
MDA-MB-231 [27] = assay: Growth of human MDA-MB-231 cells at 1 uM after 48 hrs by SRB assay; settings: MDA-MB-231, 48 h
MDA-MB-231 [28] = assay: Growth of human MDA-MB-231 cells at 10 uM after 48 hrs by SRB assay; settings: MDA-MB-231, 48 h
PC-3 [29] = assay: Growth of human PC3 cells at 10 uM after 48 hrs by SRB assay; settings: PC-3, 48 h
NUGC-3 [30] = assay: Growth of human NUGC3 cells at 0.1 uM after 48 hrs by SRB assay; settings: NUGC-3, 48 h
NUGC-3 [31] = assay: Growth of human NUGC3 cells at 1 uM after 48 hrs by SRB assay; settings: NUGC-3, 48 h
HCT-15 [32] = assay: Growth of human HCT15 cells at 3 uM after 48 hrs by SRB assay; settings: HCT-15, 48 h
ACHN [33] = assay: Growth of human ACHN cells at 0.1 uM after 48 hrs by SRB assay
PC-3 [34] = assay: Growth inhibition of human PC3 cells at 3 uM after 48 hrs by SRB assay; values are per cent of control; settings: PC-3, 48 h
MDA-MB-231 [35] = assay: Growth inhibition of human MDA-MB-231 cells at 0.3 uM after 48 hrs by SRB assay; values are per cent of control; settings: MDA-MB-231, 48 h
ACHN [36] = assay: Growth inhibition of human ACHN cells at 3 uM after 48 hrs by SRB assay; values are per cent of control
NUGC-3 [37] = assay: Growth inhibition of human NUGC3 cells at 10 uM after 48 hrs by SRB assay; values are per cent of control; settings: NUGC-3, 48 h

Chain of Rho-related GTP-binding protein RhoB (Homo sapiens) (P62745 whole entry): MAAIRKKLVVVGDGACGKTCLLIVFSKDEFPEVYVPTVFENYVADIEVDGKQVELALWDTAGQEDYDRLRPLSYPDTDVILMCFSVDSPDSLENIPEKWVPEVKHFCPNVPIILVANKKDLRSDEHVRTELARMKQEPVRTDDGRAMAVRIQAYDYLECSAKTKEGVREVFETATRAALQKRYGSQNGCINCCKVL

| Structure (SMILES) | growth, % of control at 0.3 µM (NCI-H23 [1]) | growth, % of control at 1 µM (NCI-H23 [2]) | growth, % of control at 10 µM (ACHN [3]) | growth, % of control at 0.3 µM (NUGC-3 [4]) | GI50 (HCT-15 [5]) | growth, % of control at 0.1 µM (MDA-MB-231 [6]) | GI50 (MDA-MB-231 [7]) | growth, % of control at 3 µM (NCI-H23 [8]) | GI50 (PC-3 [9]) | growth, % of control at 0.3 µM (ACHN [10]) | growth, % of control at 10 µM (NCI-H23 [11]) | GI50 (NCI-H23 [12]) | growth, % of control at 3 µM (NUGC-3 [13]) | Activity [14] | GI50 (ACHN [15]) | growth, % of control at 3 µM (MDA-MB-231 [16]) | growth, % of control at 0.1 µM (NCI-H23 [17]) | GI50 (NUGC-3 [18]) | growth, % of control at 0.1 µM (HCT-15 [19]) | growth, % of control at 1 µM (ACHN [20]) | further results |
| --- | --- | --- | --- | --- | --- | --- | --- | --- | --- | --- | --- | --- | --- | --- | --- | --- | --- | --- | --- | --- | --- |
| C=CC[N+](C)(C)CCN(C)S(=O)(=O)CCCCCCCCCCCCCCCC | 96.2% | 69.8% | 38.6% | 105% | 4730 nM | 108% | 1350 nM | 30.9% | 620 nM | 130% | 2.5% | 890 nM | 20.9% | Active | 3480 nM | 39.4% | 101% | 760 nM | 100% | 112% | growth, % of control at 1 µM (HCT-15 [21]): 97.2%; growth, % of control at 0.3 µM (HCT-15 [22]): 101%; growth, % of control at 0.1 µM (PC-3 [23]): 99.9%; growth, % of control at 10 µM (HCT-15 [24]): 48.7%; growth, % of control at 1 µM (PC-3 [25]): 61.8%; growth, % of control at 0.3 µM (PC-3 [26]): 95.9%; growth, % of control at 1 µM (MDA-MB-231 [27]): 86.5%; growth, % of control at 10 µM (MDA-MB-231 [28]): 18.4%; growth, % of control at 10 µM (PC-3 [29]): -4.8%; growth, % of control at 0.1 µM (NUGC-3 [30]): 108%; growth, % of control at 1 µM (NUGC-3 [31]): 65.5%; growth, % of control at 3 µM (HCT-15 [32]): 76.5%; growth, % of control at 0.1 µM (ACHN [33]): 135%; growth, % of control at 3 µM (PC-3 [34]): 10.1%; growth, % of control at 0.3 µM (MDA-MB-231 [35]): 104%; growth, % of control at 3 µM (ACHN [36]): 69.3%; growth, % of control at 10 µM (NUGC-3 [37]): 9.4% |
| CCCCCCCCCCCCCCS(=O)(=O)NCC(C)(C)C[N+](C)(C)C | 76.8% | 31.4% | 37.4% | 75.5% | 1700 nM | 94.3% | 2110 nM | 1.5% | 350 nM | 84.8% | -30.5% | 310 nM | 8.9% | Active | 2600 nM | 55.9% | 88.5% | 320 nM | 98.1% | 79.4% | growth, % of control at 1 µM (HCT-15 [21]): 89.2%; growth, % of control at 0.3 µM (HCT-15 [22]): 94.3%; growth, % of control at 0.1 µM (PC-3 [23]): 76.1%; growth, % of control at 10 µM (HCT-15 [24]): 19.4%; growth, % of control at 1 µM (PC-3 [25]): 46%; growth, % of control at 0.3 µM (PC-3 [26]): 73.8%; growth, % of control at 1 µM (MDA-MB-231 [27]): 77.6%; growth, % of control at 10 µM (MDA-MB-231 [28]): 31%; growth, % of control at 10 µM (PC-3 [29]): -0.3%; growth, % of control at 0.1 µM (NUGC-3 [30]): 81.8%; growth, % of control at 1 µM (NUGC-3 [31]): 35.9%; growth, % of control at 3 µM (HCT-15 [32]): 48.2%; growth, % of control at 0.1 µM (ACHN [33]): 91.3%; growth, % of control at 3 µM (PC-3 [34]): 9.8%; growth, % of control at 0.3 µM (MDA-MB-231 [35]): 88.5%; growth, % of control at 3 µM (ACHN [36]): 57.1%; growth, % of control at 10 µM (NUGC-3 [37]): -8.2% |
| CCCCCCCCCCCCCCCCS(=O)(=O)N(C)CC[N+](C)(C)C | 101% | 80.3% | 25.5% | 74.1% | 700 nM | 98.2% | 930 nM | 41.8% | 620 nM | 90.3% | 6.8% | 1290 nM | 14.4% | Active | 1600 nM | 32.7% | 103% | 330 nM | 95.7% | 69.7% | growth, % of control at 1 µM (HCT-15 [21]): 55.3%; growth, % of control at 0.3 µM (HCT-15 [22]): 91.4%; growth, % of control at 0.1 µM (PC-3 [23]): 99.4%; growth, % of control at 10 µM (HCT-15 [24]): 19.5%; growth, % of control at 1 µM (PC-3 [25]): 56.8%; growth, % of control at 0.3 µM (PC-3 [26]): 90.3%; growth, % of control at 1 µM (MDA-MB-231 [27]): 66.8%; growth, % of control at 10 µM (MDA-MB-231 [28]): 8%; growth, % of control at 10 µM (PC-3 [29]): -3.1%; growth, % of control at 0.1 µM (NUGC-3 [30]): 89.4%; growth, % of control at 1 µM (NUGC-3 [31]): 32.2%; growth, % of control at 3 µM (HCT-15 [32]): 22.4%; growth, % of control at 0.1 µM (ACHN [33]): 99.4%; growth, % of control at 3 µM (PC-3 [34]): 17.6%; growth, % of control at 0.3 µM (MDA-MB-231 [35]): 95.7%; growth, % of control at 3 µM (ACHN [36]): 51.4%; growth, % of control at 10 µM (NUGC-3 [37]): 2.7% |
